This is an account of results in US20130230459A1, “RADIOLABELLED mGluR2 PET LIGANDS” (Janssen Pharmaceuticals, Inc., priority 2010, published 2013).

SMILES strings stand for the structures. Where only a bound is given, the exact number is not on record here.

Usually melting point stands for the temperature of the solid-liquid transition.

The target of data set [1] is T1, hmGluR8 (Homo sapiens, UniProt O00222).
T1 construct: expressed in transfected cells
Kind of data set: Selectivity functional receptor assay, mGluR8. Format: cell-based. Conditions: hmGluR2 versus mGluR8. How it is done: (§1) Selectivity of the compounds for hmGluR2 versus hmGluR1, hmGluR3, hmGluR4, hmGluR5, rmGluR6, hmGluR7 and hmGluR8 was determined using functional receptor assays (either measuring changes in intracellular Ca2+ mobilization or G protein activation via [^35S]GTPγS) with cells overexpressing the receptor of interest.

Data set [2] has as its target T2, hmGluR3 (Homo sapiens, UniProt Q14832).
T2 construct: expressed in transfected cells
Kind of data set: Selectivity functional receptor assay, mGluR3. The data set is classed as cell-based. Conditions: hmGluR2 versus mGluR3. How it is done: as §1

Data set [3] addresses T3, human mGluR2 receptor (Homo sapiens, UniProt Q14416).
T3 construct: expressed in transfected cells; host or cells: CHO cells (membranes)
In words: [35S]GTPγS binding assay, mGluR2 positive allosteric modulation (PAM). Format: biochemical. Conditions: in presence of ~EC20 glutamate, membranes of CHO cells with human mGluR2; for EC50: read-out: GTPγS-hmGluR2 PAM pEC50 (converted). How it is done:
The [^35S]GTPγS binding assay is a functional membrane-based assay used to study G-protein coupled receptor (GPCR) function whereby incorporation of a non-hydrolysable form of GTP, [^35S]GTPγS (guanosine 5′-triphosphate, labelled with […] ^35S), is measured.
CHO-cells were cultured to pre-confluence and stimulated with 5 mM butyrate for 24 h. Cells were then collected by scraping in PBS and cell suspension was centrifuged (10 min at 4000 RPM in benchtop centrifuge). Supernatant was discarded and pellet gently resuspended in 50 mM Tris-HCl, pH 7.4 by mixing with a vortex and pipetting up and down. The suspension was centrifuged at 16,000 RPM (Sorvall RC-5C plus rotor SS-34) for 10 minutes and the supernatant discarded. The pellet was homogenized in 5 mM Tris-HCl, pH 7.4 using an ultra-turrax homogenizer and centrifuged again (18,000 RPM, 20 min, 4° C.). The final pellet was resuspended in 50 mM Tris-HCl, pH 7.4 and stored at −80° C. in appropriate aliquots before use. Protein concentration was determined by the Bradford method (Bio-Rad, USA) with bovine serum albumin as standard.
Measurement of mGluR2 positive allosteric modulatory activity of test compounds was performed as follows. Test compounds and glutamate were diluted in assay buffer containing 10 mM HEPES acid, 10 mM HEPES salt, pH 7.4, 100 mM NaCl, 3 mM MgCl2 and 10 μM GDP. Human mGlu2 receptor-containing membranes were thawed on ice and diluted in assay buffer supplemented with 14 μg/ml saponin. Membranes were pre-incubated with compound alone or together with a predefined (˜EC20) concentration of glutamate (PAM assay) for 30 min at 30° C. After addition of [^35S]GTPγS (f.c. 0.1 nM), assay mixtures were shaken briefly and further incubated to allow [^35S]GTPγS incorporation on activation (30 minutes, 30° C.). Final assay mixtures contained 7 μg of membrane protein in 10 mM HEPES acid, 10 mM HEPES salt, pH 7.4, 100 mM NaCl, 3 mM MgCl2,10 μM GDP and 10 μg/ml saponin. Total reaction volume was 200 μl. Reactions were terminated by rapid filtration through Unifilter-96 GF/B plates (Perkin Elmer, Mass., USA) using a 96-well filtermate universal harvester. Filters were washed 6 times with ice-cold 10 mM NaH2PO4/10 mM Na2HPO4, pH 7.4. Filters were then air-dried, and 40 μl of liquid scintillation cocktail (Microscint-O) was added to each well. Membrane-bound radioactivity was counted in a Microplate Scintillation and Luminescence Counter from Perkin Elmer.
The concentration-response curves of representative compounds of the present invention—obtained in the presence of EC20 of mGluR2 agonist glutamate to determine positive allosteric modulation (PAM)—were generated using the Lexis software interface (developed at J&J). Data were calculated as % of the control glutamate response, defined as the maximal response that is generated upon addition of glutamate alone. Sigmoid concentration-response curves plotting these percentages versus the log concentration of the test compound were analyzed using non-linear regression analysis. The concentration producing half-maximal effect is then calculated as EC50.
The pEC50 values below were calculated as the −log EC50, when the EC50 is expressed in M.

Data set [4] has as its system hmGluR1, hmGluR3, hmGluR4, hmGluR5, rmGluR6, hmGluR7 and hmGluR8. In words: Selectivity for hmGluR2 in functional receptor assays (Ca2+ mobilization or [35S]GTPγS). Format: cell-based, human; rat (mGluR6). As to conditions: hmGluR2 versus other mGluRs. On the procedure:
as §1
On the technique in general: Calcium assays in cells follow changes in intracellular calcium, usually with a dye or a luminescent sensor.

Data set [5] has as its target T4, hmGluR7 (Homo sapiens, UniProt Q14831).
T4 construct: expressed in transfected cells
Kind of data set: Selectivity functional receptor assay, mGluR7. Format: cell-based. Conditions: hmGluR2 versus mGluR7. On the procedure:
as §1

Data set [6] concerns the target T5, mGluR2 (Rattus norvegicus, UniProt P31421).
T5 construct: from tissue; host or cells: brain of living male Wistar rats (in vivo microPET)
In words: MicroPET imaging: baseline, blocking and chase experiments. The data set is classed as in vivo, Wistar rats. As to conditions: chase 0.3 mg/kg i.v. ~30 min after [^11C]B-2. How it is done:
Imaging experiments were performed on a Focus™ 220 microPET scanner (Concorde Microsystems, Knoxyille, Tenn., USA) using healthy male Wistar rats. During all scan sessions, animals were kept under gas anesthesia (2.5% isoflurane in O2 at 1 L/min flow rate).
Dynamic scans of 90 min were acquired. After reconstruction of the images (filtered back projection), they were spatially normalized to an in-house created [^11C]raclopride template of the rat brain in Paxinos coordinates. Automated and symmetric volumes of interest (VOIs) were generated for different brain regions (striatum, cortex, cerebellum, hippocampus, hypothalamus, thalamus, substantia nigra, nucleus accumbens and lateral globus pallidus) from which time-activity curves (TAC) were constructed for each individual scan, using PMOD software (v 3.1, PMOD Technologies Ltd.). The radioactivity concentration in the different brain regions was expressed as SUV as a function of time p.i. of the radiotracer by normalization for body weight of the animal and injected dose.
Rats were injected with 30-60 MBq of high specific activity formulation of [^11C]B-4, [^11C]B-2, [^11C]B-7, or [^11C]B-10 via the tail vein under isoflurane anesthesia (2.5% in O2 at 1 L/min flow rate).
For pretreatment and displacement experiments, compound A, compound B or ritanserin were dissolved and administered in a vehicle containing 20% (2-hydroxypropyl)-β-cyclodextrine and two equivalents hydrochloric acid. The ritanserin solution was protected from light.
A self-blocking study was done by subcutaneous (s.c.) administration of the authentic reference material (for [^11C]B-4) at ˜30 min prior to the radiotracer injection. Displacement studies were performed by i.v. injection of compound B at dose 4, 1, 0.3 and 0.1 mg/kg, compound A at dose 1 mg/kg or ritanserin at dose 0.3 mg/kg. All chase compounds were injected ˜30 min after radiotracer injection. A wash-out period of at least four days was maintained between the different pretreatment and displacement studies.
[^11C]B-4 was evaluated in vivo in three rats which were scanned dynamically for 90 min using μPET. The first rat was used for a baseline scan. The second rat was pretreated with authentic reference material B-4 via s.c. administration (dose 10 mg/kg) at 30 min prior to tracer injection. The third rat was used in a chase experiment and was injected i.v. with authentic reference material B-4 (dose 3 mg/kg) 30 min after tracer injection.
Two rats were injected with high specific activity tracer ([^11C]B-4, [^11C]B-2, [^11C]B-7, or [^11C]B-10) and scanned dynamically for 90 min. The first rat was scanned baseline, the second rat was injected i.v. with compound B (dose 4 mg/kg) 30 min after tracer injection. Table 16 gives an overview of the maximum and minimum SUV values in the chase experiment for the four studied tracers.
A chase experiment was performed for [^11C]B-2 with different doses of compound B (4, 1, 0.3, 0.1 mg/kg). The chase compound was injected i.v. 30 min after tracer injection. Table 17 gives an overview of the average SUV values before and after injection of the chase for the total brain.

T3 sequence (Q14416 19-872): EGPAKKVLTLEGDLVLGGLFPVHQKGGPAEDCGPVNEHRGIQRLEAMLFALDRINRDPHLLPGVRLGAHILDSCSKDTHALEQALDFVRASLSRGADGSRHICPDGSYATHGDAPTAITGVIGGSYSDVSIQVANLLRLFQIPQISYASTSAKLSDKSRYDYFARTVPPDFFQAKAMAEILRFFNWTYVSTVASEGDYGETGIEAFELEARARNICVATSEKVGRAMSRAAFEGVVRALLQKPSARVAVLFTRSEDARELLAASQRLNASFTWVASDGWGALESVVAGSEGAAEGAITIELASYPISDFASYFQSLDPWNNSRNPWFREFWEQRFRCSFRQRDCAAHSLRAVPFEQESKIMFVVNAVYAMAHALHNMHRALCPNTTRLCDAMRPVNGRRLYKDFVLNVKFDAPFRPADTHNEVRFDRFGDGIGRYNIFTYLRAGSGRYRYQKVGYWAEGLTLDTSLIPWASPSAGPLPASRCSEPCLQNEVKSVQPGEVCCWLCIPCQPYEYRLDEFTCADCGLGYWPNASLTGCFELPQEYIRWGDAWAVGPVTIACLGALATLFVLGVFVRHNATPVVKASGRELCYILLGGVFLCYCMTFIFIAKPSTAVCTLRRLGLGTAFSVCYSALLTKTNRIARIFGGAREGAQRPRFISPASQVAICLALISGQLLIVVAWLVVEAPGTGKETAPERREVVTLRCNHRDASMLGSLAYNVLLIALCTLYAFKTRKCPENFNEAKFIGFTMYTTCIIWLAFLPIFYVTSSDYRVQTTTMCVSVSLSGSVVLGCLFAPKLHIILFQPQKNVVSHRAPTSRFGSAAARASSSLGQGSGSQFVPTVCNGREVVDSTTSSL
T2 sequence (Q14832 23-879): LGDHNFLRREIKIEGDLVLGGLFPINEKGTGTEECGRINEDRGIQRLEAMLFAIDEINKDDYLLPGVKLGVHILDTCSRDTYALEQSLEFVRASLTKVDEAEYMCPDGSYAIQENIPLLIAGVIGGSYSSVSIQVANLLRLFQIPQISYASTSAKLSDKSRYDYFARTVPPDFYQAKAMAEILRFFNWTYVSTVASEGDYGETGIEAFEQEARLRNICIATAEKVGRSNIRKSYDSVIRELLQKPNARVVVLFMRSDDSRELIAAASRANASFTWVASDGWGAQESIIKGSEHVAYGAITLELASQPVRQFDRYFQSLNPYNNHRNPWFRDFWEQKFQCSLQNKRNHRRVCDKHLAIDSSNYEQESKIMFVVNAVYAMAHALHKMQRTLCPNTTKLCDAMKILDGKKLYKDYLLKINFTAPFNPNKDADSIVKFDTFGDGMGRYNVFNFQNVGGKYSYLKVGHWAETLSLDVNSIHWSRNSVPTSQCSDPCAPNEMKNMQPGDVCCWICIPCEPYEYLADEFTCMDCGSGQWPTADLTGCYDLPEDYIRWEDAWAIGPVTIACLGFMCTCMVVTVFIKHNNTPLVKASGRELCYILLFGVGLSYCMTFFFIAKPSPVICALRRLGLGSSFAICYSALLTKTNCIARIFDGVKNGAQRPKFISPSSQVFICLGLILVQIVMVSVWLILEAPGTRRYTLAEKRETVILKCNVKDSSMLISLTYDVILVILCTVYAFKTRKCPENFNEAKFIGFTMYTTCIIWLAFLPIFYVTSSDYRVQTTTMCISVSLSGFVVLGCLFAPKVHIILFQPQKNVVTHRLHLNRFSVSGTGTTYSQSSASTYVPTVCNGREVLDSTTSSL
T1 sequence (O00222 34-908): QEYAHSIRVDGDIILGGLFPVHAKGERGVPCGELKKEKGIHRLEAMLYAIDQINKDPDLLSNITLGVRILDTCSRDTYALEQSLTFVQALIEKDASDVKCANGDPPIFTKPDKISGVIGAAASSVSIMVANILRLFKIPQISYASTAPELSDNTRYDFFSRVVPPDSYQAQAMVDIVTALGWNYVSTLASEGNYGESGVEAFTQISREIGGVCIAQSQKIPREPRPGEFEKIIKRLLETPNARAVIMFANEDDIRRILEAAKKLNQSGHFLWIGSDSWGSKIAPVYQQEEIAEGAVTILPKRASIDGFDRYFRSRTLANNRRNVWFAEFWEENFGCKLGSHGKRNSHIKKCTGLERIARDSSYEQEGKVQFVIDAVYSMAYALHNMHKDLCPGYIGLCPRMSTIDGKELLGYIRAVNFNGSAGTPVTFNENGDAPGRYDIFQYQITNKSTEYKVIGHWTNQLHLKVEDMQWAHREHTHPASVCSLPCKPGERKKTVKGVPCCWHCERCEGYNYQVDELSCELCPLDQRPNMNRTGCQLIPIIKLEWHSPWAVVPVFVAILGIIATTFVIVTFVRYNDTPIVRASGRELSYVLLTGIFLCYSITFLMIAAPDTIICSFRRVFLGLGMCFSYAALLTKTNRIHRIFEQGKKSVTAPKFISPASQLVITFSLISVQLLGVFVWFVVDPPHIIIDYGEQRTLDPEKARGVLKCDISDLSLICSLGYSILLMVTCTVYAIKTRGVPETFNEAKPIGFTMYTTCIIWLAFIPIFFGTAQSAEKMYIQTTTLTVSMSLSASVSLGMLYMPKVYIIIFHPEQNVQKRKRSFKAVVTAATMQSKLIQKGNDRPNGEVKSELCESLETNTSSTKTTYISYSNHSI
T4 sequence (Q14831 35-915): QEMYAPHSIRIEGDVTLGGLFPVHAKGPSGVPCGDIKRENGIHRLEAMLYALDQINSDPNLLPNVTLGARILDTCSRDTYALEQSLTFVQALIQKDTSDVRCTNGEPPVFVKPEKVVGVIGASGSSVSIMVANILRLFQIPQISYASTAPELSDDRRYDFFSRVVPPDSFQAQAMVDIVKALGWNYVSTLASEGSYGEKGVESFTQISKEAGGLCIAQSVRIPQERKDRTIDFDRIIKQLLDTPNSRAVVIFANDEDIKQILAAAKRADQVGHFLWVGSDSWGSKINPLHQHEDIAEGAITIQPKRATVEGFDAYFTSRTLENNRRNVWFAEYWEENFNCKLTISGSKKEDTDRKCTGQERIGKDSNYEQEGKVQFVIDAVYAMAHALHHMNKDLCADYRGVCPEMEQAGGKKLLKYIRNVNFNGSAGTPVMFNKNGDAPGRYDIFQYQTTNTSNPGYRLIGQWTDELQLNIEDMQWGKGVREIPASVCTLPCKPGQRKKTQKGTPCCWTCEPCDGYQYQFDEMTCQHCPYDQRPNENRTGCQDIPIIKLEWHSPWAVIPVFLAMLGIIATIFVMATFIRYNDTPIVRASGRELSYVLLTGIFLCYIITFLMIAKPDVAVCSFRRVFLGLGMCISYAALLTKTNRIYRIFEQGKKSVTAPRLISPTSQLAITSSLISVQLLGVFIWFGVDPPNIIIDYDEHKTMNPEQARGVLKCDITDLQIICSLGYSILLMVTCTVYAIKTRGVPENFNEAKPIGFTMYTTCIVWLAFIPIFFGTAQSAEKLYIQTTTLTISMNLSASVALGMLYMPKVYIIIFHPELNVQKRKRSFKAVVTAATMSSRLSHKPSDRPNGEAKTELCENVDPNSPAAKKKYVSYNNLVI
T5 sequence (P31421 19-872): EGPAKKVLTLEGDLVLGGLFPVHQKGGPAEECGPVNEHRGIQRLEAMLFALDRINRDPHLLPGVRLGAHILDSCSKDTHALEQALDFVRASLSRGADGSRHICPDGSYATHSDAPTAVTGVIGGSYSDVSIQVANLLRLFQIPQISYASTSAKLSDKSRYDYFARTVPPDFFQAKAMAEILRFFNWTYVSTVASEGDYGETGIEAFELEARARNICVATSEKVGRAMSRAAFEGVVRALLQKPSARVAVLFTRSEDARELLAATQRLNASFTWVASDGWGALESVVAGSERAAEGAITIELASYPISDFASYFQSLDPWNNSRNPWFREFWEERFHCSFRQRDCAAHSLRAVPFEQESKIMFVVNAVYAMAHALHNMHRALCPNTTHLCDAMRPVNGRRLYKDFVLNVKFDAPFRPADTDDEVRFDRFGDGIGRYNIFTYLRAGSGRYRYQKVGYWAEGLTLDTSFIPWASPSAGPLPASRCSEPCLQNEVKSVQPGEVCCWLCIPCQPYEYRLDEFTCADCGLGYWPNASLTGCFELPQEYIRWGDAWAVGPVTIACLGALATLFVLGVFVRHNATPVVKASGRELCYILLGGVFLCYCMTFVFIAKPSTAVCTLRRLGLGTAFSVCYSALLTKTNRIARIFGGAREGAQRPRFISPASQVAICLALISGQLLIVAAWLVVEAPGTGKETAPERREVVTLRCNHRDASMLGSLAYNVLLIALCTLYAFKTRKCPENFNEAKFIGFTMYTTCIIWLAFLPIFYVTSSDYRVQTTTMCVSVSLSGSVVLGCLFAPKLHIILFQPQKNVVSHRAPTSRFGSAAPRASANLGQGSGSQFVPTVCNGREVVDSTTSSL

On to `COc1cc(F)cc(F)c1C1CCN(c2ccn3c(CC4CC4)nnc3c2Cl)CC1` [compound 7], for which the melting point was determined as 162.2 °C. Besides, in data set [1], the “Selectivity over mGluR8” value was “≧500 fold”. Besides, the “Selectivity over mGluR3” value in data set [2] is given as “≧500 fold”. Besides, the “GTPγS-hmGluR2 PAM pEC50” value in data set [3] came to 8.16. Also, the “Selectivity over mGluR1, mGluR3-mGluR8” value in data set [4] was >1,000 fold, except for mGluR3 and mGluR8.

Compound `COc1c(F)cccc1C1CCN(c2ccn3c(CC4CC4)nnc3c2Cl)CC1` [compound 9] returned a melting point of 168.3 °C. In addition, in data set [3], the “GTPγS-hmGluR2 PAM pEC50” value came to 7.43. For the same compound, in data set [4], the “Selectivity over mGluR1, mGluR3-mGluR8” value was over 500 fold.

For `COc1cccc(F)c1C1CCN(c2ccn3c(CC4CC4)nnc3c2Cl)CC1` [compound 6], in data set [5], the “Selectivity over mGluR7” value is “mGluR7 and mGluR8 for which selectivity >500 fold”. Further, the “Selectivity over mGluR8” value in data set [1] was “mGluR7 and mGluR8 for which selectivity >500 fold”. The “Selectivity over mGluR3” value in data set [2] is recorded as over 300 fold. Further, the “GTPγS-hmGluR2 PAM pEC50” value in data set [3] came to 8.22. In addition, the “Selectivity over mGluR1, mGluR3-mGluR8” value in data set [4] is > 1,000 fold.

For `COc1ccc(F)cc1C1CCN(c2ccn3c(CC4CC4)nnc3c2Cl)CC1` [compound 4], the melting point is over 300 °C. Besides, the “Selectivity over mGluR3” value in data set [2] is reported as at least 40 fold. The EC50 in data set [3] was 9.33 nM. Further, the “Selectivity over mGluR1, mGluR3-mGluR8” value in data set [4] is reported as over 500 fold.

As to `Cc1nc2sccn2c(=O)c1CCN1CCC(=C(c2ccc(F)cc2)c2ccc(F)cc2)CC1` [Ritanserin, ritanserin, reference compound], the “effect of the chase compound on the binding of [^11C]B-2” value in data set [6] is “no significant effect”.

The compound `COc1c(C2CCN(c3ccn4c(CC5CC5)nnc4c3Cl)CC2)ccc(F)c1F` [compound 8] registered a melting point of 173.5 °C. Also, the “Selectivity over mGluR3” value in data set [2] is at least 400 fold. In data set [3], the EC50 was 26.3 nM. For the same compound, the “Selectivity over mGluR1, mGluR3-mGluR8” value in data set [4] is reported as > 1,000 fold.

In the case of `COc1ccccc1C1CCN(c2ccn3c(CC4CC4)nnc3c2Cl)CC1` [compound 11], the “Selectivity over mGluR3” value in data set [2] is about 20 fold. The “GTPγS-hmGluR2 PAM pEC50” value in data set [3] worked out at 7.7. In addition, in data set [4], the “Selectivity over mGluR1, mGluR3-mGluR8” value is given as >100, except for mGluR3 for which selectivity fold.

`COc1c(F)ccc(F)c1C1CCN(c2ccn3c(CC4CC4)nnc3c2C(F)(F)F)CC1` [compound 3]: the melting point was 180.7 °C. In data set [3], the “GTPγS-hmGluR2 PAM pEC50” value is listed as 8.39. Further, the “Selectivity over mGluR1, mGluR3-mGluR8” value in data set [4] is listed as >1,000 fold.

`COc1c(F)cccc1C1CCN(c2ccn3c(CC4CC4)nnc3c2C(F)(F)F)CC1` [compound 12] returned a melting point of 195.7 °C. Besides, in data set [2], the “Selectivity over mGluR3” value is given as at least 200 fold. Further, in data set [3], the EC50 was 11.2 nM. Moreover, the “Selectivity over mGluR1, mGluR3-mGluR8” value in data set [4] is recorded as ≥ 1,000 fold.

Compound `COc1ccc(F)c(F)c1C1CCN(c2ccn3c(CC4CC4)nnc3c2Cl)CC1` [compound 10] gave a melting point of 208.5 °C. The “Selectivity over mGluR8” value in data set [1] is listed as “which selectivity ≧500 fold”. Besides, in data set [2], the “Selectivity over mGluR3” value was “which selectivity ≧500 fold”. Also, the “GTPγS-hmGluR2 PAM pEC50” value in data set [3] came out at 8.03. In addition, the “Selectivity over mGluR1, mGluR3-mGluR8” value in data set [4] is >1,000 fold, except for mGluR3 and mGluR8 for.

On to `COc1cccc(F)c1C1CCN(c2ccn3c(CC(F)(F)F)nnc3c2Cl)CC1` [compound 5], for which the EC50 in data set [3] was 3.89 nM. For the same compound, the “Selectivity over mGluR1, mGluR3-mGluR8” value in data set [4] is listed as “≧1,000 fold”.

The compound `COc1ccc(F)cc1C1CCN(c2ccn3c(CC(F)(F)F)nnc3c2Cl)CC1` [compound 1] had a melting point of 259 °C. In data set [3], the “GTPγS-hmGluR2 PAM pEC50” value is listed as 7.98. For the same compound, in data set [4], the “Selectivity over mGluR1, mGluR3-mGluR8” value is listed as >1,000 fold.

`COc1c(F)ccc(F)c1C1CCN(c2ccn3c(CC4CC4)nnc3c2Cl)CC1` [compound 2] showed a melting point of 163.2 °C. Moreover, the EC50 in data set [3] is 7.41 nM. Also, in data set [4], the “Selectivity over mGluR1, mGluR3-mGluR8” value was >1,000 fold.
